Source: EP0839036B1, “USE OF 1,4-DIHYDROPYRIDINE DERIVATIVES IN THE PREVENTION AND THERAPY OF ATHEROSCLEROTIC DEGRADATION OF ARTERIAL WALLS” (RECORDATI S.A. CHEMICAL and PHARMACEUTICAL COMPANY, priority 1995, dated 1997)
pIC50: −log10 of the molar value. Read-outs that look alike come from different tables or passages of the source.

What was measured:
LDL = experiment: Cu++-mediated LDL oxidation, conjugated diene formation at 234 nm; assay type: physicochemical, human; set-up: Lag time: unit: min; conditions: for Lag time: 20 µM CuSO4, 25°C
Method: Lercanidipine antioxidant capacity was evaluated by incubating LDL With 20 µM Cu^++ in the presence or absence of different concentrations of the tested compound (0.01 µM - 50 µM). LDL oxidation Was followed by monitoring conjugated diene formation at 234 nm. The experimental conditions were as follows. LDL (d = 1.019-1.063) were isolated from human pooled plasma by sequential ultracentrifugation at 4°C and 40,000 rpm in a 50Ti rotor, using a L5-50 ultracentrifuge (Beckman, Palo Alto, CA). LDL were then dialyzed against 0.15 M NaCl containing 0.01% ethylenediaminetetraacetic acid pH 7.4, sterilized by filtration through a […] millipore filter and kept at 4°C under nitrogen in the dark until use (up to 3 weeks). Before use LDL were dialysed against ethylenediaminetetraacetic acid free phosphate buffered saline pH 7.4 on Sephadex G-25 columns (PD-10, Pharmacia Fine Chemicals, Uppsala, Sweden) and then LDL were filtered through a sterile 0.22 µM filter. LDL in phosphate buffered saline (50 µg lipoprotein protein/ml) were oxidized by incubation at 25°C with 20 µM CuSO4 for 3 hours. The lercanidipine solution was prepared as a 10^-2 M stock solution in methanol and added as ethanol solution (maximum 1% v/v) prior to addition of copper. The effect of lercanidipine on the oxidation of LDL was determined by continuous monitoring the conjugated diene formation by recording the increase in the absorbance at 234 nm at 5 min intervals during a three hours period, against a phosphate buffered saline blank, using a UV spectrophotometer (Beckman DU 640) with continuous reading with a automatic 6-cell changer. The lag time of the onset of oxidation was calculated as the intercept between the line of the maximum slope of the propagation phase and the baseline where absorbance was that at time 0.

[1] = tested on: cell-mediated oxidation of LDL; experiment: Time course of cell-mediated LDL oxidation; assay type: cell-based; conditions: 30 µM, after 10 hours incubation; Figure 7
Method: The antioxidant capacity of lercanidipine and its enantiomers was investigated also on cell-mediated oxidation. This was evaluated by incubating ethylenediaminetetraacetic acid free LDL under sterile conditions With 5 µM Cu^++ (100 µg Apo B/ml) in the presence of J774 cells or alternatively with EAhy-926 cells. Oxidation was blocked after 22 hours incubation by adding butylated hydroxytoluene to the medium (final concentration 40 µM) dissolved in ethanol. The extent of lipid peroxidation was measured by determining the percentage inhibition of aldehydic breakdown products using the thiobarbituric acid assay [A.N. Hanna et al., Biochem. Pharmacol. 45, 753 (1993)]. Briefly, to 0.250 ml of the incubated samples, 0.750 ml of trichloroacetic acid ([…]) was added followed by 0.750 ml of thiobarbituric acid (0.67% w/v). The samples were heated at 100°C for 20 min, followed by cooling and centrifugation. Malondialdehyde equivalents were calculated using 1,1,3,3-tetramethoxy-propane as standard.
In the above experiments of cell-mediated oxidation the effects of lercanidipine were investigated after 22 hours incubation. […]

[2] = tested on: Human vascular myocytes (A 617 from human femoral artery); experiment: Myocytes growth inhibition measured by cell count (human); assay type: cell-based; conditions: cell count after 72 hours with 10% fetal calf serum, read-out: IC50 (concentration required to inhibit cell growth by 50%)
Method: Migration of myocytes was investigated for the present invention using rat aortic smooth muscle cells in the presence of fibrinogen as chemotactic factor, whereas for studies on their proliferation rat and human cells were used. Cell count and [^3H]-thymidine incorporation were used to evaluate myocytes growth. The methodology was as follows:
Myocytes were cultured from the intima-medial layer of the aortas of male Sprague-Dawley rats (200-250 g). Cells were grown in monolayers at 37°C in a humidified atmosphere of 5% CO2 in Eagle's minimum essential medium supplemented with 10% (v/v) fetal calf serum, 100 U/ml penicillin, 0.1 mg/ml streptomycin, 20 mM tricine buffer and 1% (v/v) non-essential amino acid solution. The medium was changed every third day. Cells were used between the 4th and 10th passage. Cell viability was timely assessed by tripan blue exclusion. Myocytes were identified for growth behaviour, morphology and using monoclonal antibody specific for a-actin, the actin isoform typical of myocytes. Human vascular myocytes (A 617 from human femoral artery) were grown in the same culture conditions. […] Cell proliferation was evaluated by cell count after trypsinization of the monolayers using a Coulter Counter model ZM. Cell viability was assessed by tripan blue exclusion, and found to be higher than 95% at the drug concentrations used.

[3] = tested on: macrophages loaded with cholesterol ester; experiment: Cholesterol esterification in macrophages loaded with cholesterol ester; assay type: cell-based, mouse; conditions: Figure 4; for relative potency on cholesterol esterification: cholesterol ester loaded macrophages
Method: Cholesterol esterification induced by AcLDL in mouse peritoneal macrophages was investigated as follows. Mouse peritoneal macrophages were obtained by peritoneal lavage from mice (Balb/c Charles River, Calco, Italy) three days after intraperitoneal injection of thioglycolate. Cells (2-3x10^6) were plated in 35 mm wells with Dulbecco's minimum essential medium containing 10% fetal bovine serum. After 3 hours, the dishes were washed to eliminate unattached cells and maintained in Dulbecco's minimum essential medium plus 10% fetal bovine serum for 24 hours before use. After cell plating, experiments were performed at 37°C in serum free Dulbecco's minimum essential medium containing 0.2% essentially fatty acid-free bovine serum albumin plus the indicated additions. Human LDL (d=1.019-1.063 g/ml) were isolated from plasma of healthy volunteers by sequential ultracentrifugation (Beckman L5-50, Palo Alto, CA). For acetylation, LDL were dialysed against 0.15 M NaCl, pH 7.4, diluted with an equal volume of saturated sodium acetate and treated with acetic anhydride. For [^125I]AcLDL, lipoproteins were labelled with sodium [^125I]iodide desalted by gel filtration on Sephadex G-25 eluted with phosphate buffered saline. Specific activity was 100-200 cpm/ng protein. Trichloroacetic acid non precipitable radioactivity was below 2% of total. All lipoproteins were sterile filtered. Cells were incubated for 24 hours with the tested compounds. After substitution of the medium with an identical one, incubation was continued for additional 24 hours. During this second incubation [^125I]AcLDL were added (50 µg/ml). Cholesterol esterification was measured after addition of [1-^14C] oleic acid ([…] sample) complexed with bovine serum albumin during the last 1 or 2 hours of incubation and subsequent determination of radioactivity associated with cellular cholesteryl esters. Where indicated cells were enriched with cholesterol by 24 hours incubation with 50 µg/ml of AcLDL before drug addition and experimental determinations.
Another set of experiments was performed to evaluate the effect of lercanidipine on cholesterol esterification in macrophages loaded with cholesterol ester before the addition of the compound, this condition being the same as in foam cells. Cells are loaded with cholesteryl esters by exposure for 24 hours to a medium containing 50 µg acetyl LDL.

[4] = tested on: rat aortic smooth muscle cells (myocytes); experiment: Myocytes growth inhibition measured by cell count (rat); assay type: cell-based; conditions: 72 h, cell count after 72 hours with 10% fetal calf serum, read-out: IC50 (concentration required to inhibit cell growth by 50%)
renal hypertensive dogs = experiment: Blood pressure in renal hypertensive dogs, oral administration; assay type: in vivo, beagle dogs; conditions: for ED25 (dose inducing 25% decrease in DBP at peak effect), 95% C.L.: renal hypertensive dogs, linear regression analysis
Method: The antihypertensive effects of oral assumption of lercanidipine and its enantiomers were tested in renal hypertensive dogs.
Male beagle dogs weighing 12-13 kg, aged 1-3 years (Nossan Allevamenti, Italy) were used. Chronic sustained hypertension was induced by bilateral renal artery constriction, according to the Goldblatt method "two-kidney, two clip hypertension". Under barbiturate anaesthesia (35 mg/kg iv.) during two different surgical interventions one month apart from each other, both renal arteries were clipped with original renal silver clips and narrowed by about 60-70 %. After two months from the last intervention, an experimental renal hypertension was produced and the animals were suitable for the implantation of a catheter. Under sodium pentobarbital anaesthesia (35 mg/kg iv.), in sterile conditions, the dogs were catheterized by inserting an indwelling cannula (PE 200 Clay Adams) into the ascending aorta through the right common carotid artery. The catheter was subcutaneously exteriorized at the back of the neck, filled with heparinized saline solution and daily flushed to prevent clotting. After a week to recover from surgery, the animals were connected to a HP 1290A pressure transducer connected to an HP 8805B carrier amplifier of a Hewlett Packard HP 7700 multichannel polygraph, in order to monitor the arterial blood pressure. Heart rate was manually computed from the pressure trace.
All animals were alternatively treated with placebo, lercanidipine and its (R)- and (S)-enantiomers. The drugs were administered by the oral route with a straight round aseptic tip catheter (Pores Serlat - France). The drugs were suspended in aqueous 0.5% Methocel A4C plus Antifoam M10 (10%). The administered volume was 1 ml/kg. The suspending medicine was used as placebo. During experimental performance, the arterial blood pressure was continuously recorded 30 minutes before (Basal Values) and up to 8 hours after drug administration.
The ED25 values (dose inducing 25% decrease in DBP at peak effect) were evaluated by linear regression analysis and are summarized in Table 4.

[5] = tested on: mouse peritoneal macrophages; experiment: Cholesterol esterification induced by AcLDL in macrophages; assay type: cell-based; conditions: comparison of lercanidipine and enantiomers; Figure 3
Method: Cholesterol esterification induced by AcLDL in mouse peritoneal macrophages was investigated as follows. Mouse peritoneal macrophages were obtained by peritoneal lavage from mice (Balb/c Charles River, Calco, Italy) three days after intraperitoneal injection of thioglycolate. Cells (2-3x10^6) were plated in 35 mm wells with Dulbecco's minimum essential medium containing 10% fetal bovine serum. After 3 hours, the dishes were washed to eliminate unattached cells and maintained in Dulbecco's minimum essential medium plus 10% fetal bovine serum for 24 hours before use. After cell plating, experiments were performed at 37°C in serum free Dulbecco's minimum essential medium containing 0.2% essentially fatty acid-free bovine serum albumin plus the indicated additions. Human LDL (d=1.019-1.063 g/ml) were isolated from plasma of healthy volunteers by sequential ultracentrifugation (Beckman L5-50, Palo Alto, CA). […] Trichloroacetic acid non precipitable radioactivity was below 2% of total. […] Cholesterol esterification was measured after addition of [1-^14C] oleic acid ([…] sample) complexed with bovine serum albumin during the last 1 or 2 hours of incubation and subsequent determination of radioactivity associated with cellular cholesteryl esters. […]

## COC(=O)C1=C(C)NC(C)=C(C(=O)OC(C)(C)CN(C)CCC(c2ccccc2)c2ccccc2)C1c1cccc([N+](=O)[O-])c1 (racemic) [Lercanidipine, methyl 1,1,N-trimethyl-N-(3,3-diphenylpropyl)-2-aminoethyl 1,4-dihydro-2,6-dimethyl--4-(3-nitrophenyl)-pyridine-3,5-dicarboxylate]
LDL; 10 µM
  effect on the lag-phase of LDL oxidation: doubled the lag-phase of LDL oxidation
LDL; "in these assays" (LDL oxidation)
  potency on LDL oxidation compared with lacidipine: one order of magnitude higher than that of lacidipine
LDL; Lercanidipine 0.5 µM
  Lag time: 45.1 ± 3.7
LDL; Lercanidipine 1.0 µM
  Lag time: 49.8 ± 4.7
LDL; Lercanidipine 2.5 µM, P < 0.05
  Lag time: 53.6 ± 3.3
LDL; Lercanidipine 5.0 µM, P < 0.01
  Lag time: 73.2 ± 4.8
LDL; Lercanidipine 10.0 µM, P < 0.01
  Lag time: 112.7 ± 5.2
[1]
  inhibition of lipid oxidation: very high inhibition of lipid oxidation
[2]
  pIC50: 4.60
[3]; Mus musculus, Macrophage, cells loaded 24 hours with 50 µg acetyl LDL
  pIC50: ~5.15
[3]; maximum, cells loaded 24 hours with 50 µg acetyl LDL
  inhibition of cholesterol esterification: up to 70%
[4]; Myocytes from SD Rat
  pIC50: 4.51
[4]; Myocytes from SHR Rat
  pIC50: 4.85
[4]; Myocytes from WK Rat
  pIC50: 4.79
Renal hypertensive dogs
  effect on arterial blood pressure: dose-related decrease in arterial blood pressure

## COC(=O)C1=C(C)NC(C)=C(C(=O)OC(C)(C)CN(C)CCC(c2ccccc2)c2ccccc2)[C@@H]1c1cccc([N+](=O)[O-])c1 [(R)-Lercanidipine, (R)-(-)-methyl 1,1-N-triethyl-N-(3,3-diphenylpropyl)-2-aminoethyl 1,4-dihydro--2,6-dimethyl-4-(3-nitrophenyl)-pyridine-3,5-dicarboxylate]
[3]
  relative potency on cholesterol esterification: slightly more potent than the racemate
Renal hypertensive dogs
  ED25 (dose inducing 25% decrease in DBP at peak effect), 95% C.L.: > > 30 mg/kg
[5]
  relative activity on cholesterol esterification induced by AcLDL: most active compound

## COC(=O)C1=C(C)NC(C)=C(C(=O)OC(C)(C)CN(C)CCC(c2ccccc2)c2ccccc2)[C@H]1c1cccc([N+](=O)[O-])c1 [(S)-Lercanidipine, (S)-(+)-methyl 1,1-N-trimethyl-N-(3,3-diphenylpropyl)-2-aminoethyl 1,4-dihydro--2,6-dimethyl-4-(3-nitrophenyl)-pyridine-3,5-dicarboxylate]
[3]
  relative potency on cholesterol esterification: least potent among the compounds tested
Renal hypertensive dogs
  antihypertensive efficacy compared with the racemate: two fold more efficacious than the racemate
  effect on arterial blood pressure: dose-related decrease in arterial blood pressure
  ED25 (dose inducing 25% decrease in DBP at peak effect), 95% C.L.: 0.4 (0.3 ö 0.7) mg/kg

## CCOC(=O)C1=C(C)NC(C)=C(C(=O)OCC)C1c1ccccc1/C=C/C(=O)OC(C)(C)C [LA, Lacidipine, reference compound]
[4]; Myocytes from SD Rat
  pIC50: 4.63

## COC(=O)C1=C(C)NC(C)=C(C(=O)OCCN(C)Cc2ccccc2)C1c1cccc([N+](=O)[O-])c1 (stereo not drawn) [NI, Nicardipine, reference compound]
[4]; Myocytes from SD Rat
  pIC50: 4.41
